Test results as given in patent US10722520B2, “Heterocyclic compounds and their use in preventing or treating bacterial infections” (MUTABILIS, priority 2016, dated 2020).

Key:
E. coli 131119 = assay: MIC of ceftazidime (CAZ) at fixed concentration of compound (synergy), broth microdilution; assay type: cell-based; details: MIC of ceftazidime with compound fixed at 4 μg/mL; strain 131119 (E. coli)
Summary of the method: (§1)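 Growth inhibition was scored by eye after 16-20 h at 35° C (room air), with bacteria from log phase seeded at 5×10^5 cfu/mL final in cation-adjusted Mueller-Hinton medium.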

E. coli UFR41 = assay: as above; assay type: cell-based; details: MIC of ceftazidime with compound fixed at 4 μg/mL; strain UFR41 (E. coli)
Summary of the method: as §1

K. pneumoniae 160143 = assay: as above; assay type: cell-based; details: MIC of ceftazidime with compound fixed at 4 μg/mL; strain 160143 (K. pneumoniae)
Summary of the method: as §1

K. pneumoniae UFR24 = assay: as above; assay type: cell-based; details: MIC of ceftazidime with compound fixed at 4 μg/mL; strain UFR24 (K. pneumoniae)
Summary of the method: as §1

E. coli UFR39 [1] = assay: as above; assay type: cell-based; details: MIC of ceftazidime with compound fixed at 4 μg/mL; strain UFR39 (E. coli)
Summary of the method: as §1

E. cloacae UFR70 = assay: as above; assay type: cell-based; details: MIC of ceftazidime with compound fixed at 4 μg/mL; strain UFR70 (E. cloacae)
Summary of the method: as §1

E. coli UFR61O = assay: as above; assay type: cell-based; details: MIC of ceftazidime with compound fixed at 4 μg/mL; strain UFR61O (E. coli)
Summary of the method: as §1

E. cloacae UFR85 = assay: as above; assay type: cell-based; details: MIC of ceftazidime with compound fixed at 4 μg/mL; strain UFR85 (E. cloacae)
Summary of the method: as §1

K. oxytoca UFR21 = assay: as above; assay type: cell-based; details: MIC of ceftazidime with compound fixed at 4 μg/mL; strain UFR21 (K. oxytoca)
Summary of the method: as §1

E. coli RGN238 = assay: as above; assay type: cell-based; details: MIC of ceftazidime with compound fixed at 4 μg/mL; strain RGN238 (E. coli)
Summary of the method: as §1

K. pneumoniae 200047 = assay: as above; assay type: cell-based; details: MIC of ceftazidime with compound fixed at 4 μg/mL; strain 200047 (K. pneumoniae)
Summary of the method: as §1

E. coli UFR32 = assay: as above; assay type: cell-based; details: MIC of ceftazidime with compound fixed at 4 μg/mL; strain UFR32 (E. coli)
Summary of the method: as §1

K. pneumoniae BAA-1898 [2] = assay: as above; assay type: cell-based
Summary of the method: as §1

K. pneumoniae UFR68 = assay: as above; assay type: cell-based; details: MIC of ceftazidime with compound fixed at 4 μg/mL; strain UFR68 (K. pneumoniae)
Summary of the method: as §1

K. pneumoniae UFR77 = assay: as above; assay type: cell-based; details: MIC of ceftazidime with compound fixed at 4 μg/mL; strain UFR77 (K. pneumoniae)
Summary of the method: as §1

E. cloacae 260508 = assay: as above; assay type: cell-based; details: MIC of ceftazidime with compound fixed at 4 μg/mL; strain 260508 (E. cloacae)
Summary of the method: as §1

E. cloacae P99 [3] = assay: as above; assay type: cell-based
Summary of the method: as §1

E. coli UFR18 = assay: as above; assay type: cell-based; details: MIC of ceftazidime with compound fixed at 4 μg/mL; strain UFR18 (E. coli)
Summary of the method: as §1

E. coli 190317 [4] = assay: as above; assay type: cell-based
Summary of the method: as §1

K. pneumoniae 6299 [5] = assay: as above; assay type: cell-based
Summary of the method: as §1

P. aeruginosa CIP107051 [6] = assay: as above; assay type: cell-based
Summary of the method: as §1

E. cloacae UFR51 = assay: as above; assay type: cell-based; details: MIC of ceftazidime with compound fixed at 4 μg/mL; strain UFR51 (E. cloacae)
Summary of the method: as §1

E. coli UFR74 = assay: as above; assay type: cell-based; details: MIC of ceftazidime with compound fixed at 4 μg/mL; strain UFR74 (E. coli)
Summary of the method: as §1

CMY-37 = CMY-37 (Citrobacter freundii, UniProt P05193); details: read-out: IC50 β-lactamase CMY-37; class (C); nitrocefin 200 μM, 30-min pre-incubation, enzyme 0.2 nM
K. pneumoniae 6299 [7] = assay: MIC of compound alone, broth microdilution; assay type: cell-based
Summary of the method: as §1

P. aeruginosa CIP107051 [8] = assay: MIC of compound alone, broth microdilution; assay type: cell-based
Summary of the method: as §1

E. coli UFR39 [9] = assay: MIC of compound alone, broth microdilution; assay type: cell-based; details: Escherichia coli, UFR39, read-out: MIC CAZ alone
Summary of the method: as §1

AmpC (PAE) = AmpC (PAE) (Pseudomonas aeruginosa, UniProt P24735); details: read-out: IC50 β-lactamase AmpC (PAE); class (C); nitrocefin 200 μM, 30-min pre-incubation, enzyme 0.4 nM
AmpC (P99) = AmpC (P99) (Enterobacter cloacae, UniProt P05364); details: read-out: IC50 β-lactamase AmpC (P99); class (C); nitrocefin 200 μM, 30-min pre-incubation, enzyme 0.2 nM
CTX-M-15 = CTX-M-15 (Escherichia coli, UniProt Q9EXV5); details: read-out: IC50 β-lactamase CTX-M-15; class (A); nitrocefin 200 μM, 30-min pre-incubation, enzyme 0.4 nM
TEM-1 = TEM-1 (Escherichia coli, UniProt P62593); details: read-out: IC50 β-lactamase TEM-1; class (A); nitrocefin 200 μM, 30-min pre-incubation, enzyme 0.1 nM
OXA-48 = OXA-48 (Klebsiella pneumoniae, UniProt Q6XEC0); details: read-out: IC50 β-lactamase OXA-48; class (D); nitrocefin 200 μM, 30-min pre-incubation, enzyme 0.3 nM
OXA-15 = OXA-15 (Pseudomonas aeruginosa, UniProt Q51574); details: read-out: IC50 β-lactamase OXA-15; class (D); nitrocefin 200 μM, 30-min pre-incubation, enzyme 0.4 nM
OXA-11 = OXA-11 (Pseudomonas aeruginosa, UniProt Q06778); details: read-out: IC50 β-lactamase OXA-11; class (D); nitrocefin 200 μM, 30-min pre-incubation, enzyme 1.2 nM
K. pneumoniae BAA-1898 [10] = assay: MIC of compound alone, broth microdilution; assay type: cell-based; details: strain BAA-1898; compound alone
Summary of the method: as §1

E. cloacae P99 [11] = assay: MIC of compound alone, broth microdilution; assay type: cell-based; details: strain P99; compound alone
Summary of the method: as §1

E. coli 190317 [12] = assay: MIC of compound alone, broth microdilution; assay type: cell-based; details: strain 190317; compound alone
Summary of the method: as §1

SHV-1 = SHV-1 (Klebsiella pneumoniae, UniProt P0AD64); details: read-out: IC50 β-lactamase SHV-1; class (A); nitrocefin 200 μM, 30-min pre-incubation, enzyme 0.075 nM
OXA-1 = OXA-1 (Escherichia coli, UniProt P13661); details: read-out: IC50 β-lactamase OXA-1; class (D); nitrocefin 200 μM, 30-min pre-incubation, enzyme 0.2 nM
KPC-2 = KPC-2 (Klebsiella pneumoniae, UniProt Q9F663); details: read-out: IC50 β-lactamase KPC-2; class (A); nitrocefin 200 μM, 30-min pre-incubation, enzyme 1 nM

Question: For O=C1N2CC(n3cccn3)=CC(C2)N1OC(F)(F)C(=O)[O-].[Li+] (stereo not drawn) [Example 4, lithium difluoro-(7-oxo-3-pyrazol-1-yl-1,6-diaza-bicyclo[3.2.1]oct-3-en-6-yloxy)-acetate], which “MIC combination of CAZ and compounds of the invention at 4 μg/mL” value (from here on “MIC combination”) (E. coli 131119) is on record?
Answer: <0.25

Question: What about the “MIC combination” value (E. coli UFR41) of the same molecule?
Answer: <0.25

Question: What about the “MIC combination” value (K. pneumoniae 160143) of the same molecule?
Answer: <0.25

Question: And the “MIC combination” value (K. pneumoniae UFR24)?
Answer: 0.5

Question: What about the “MIC combination” value (E. coli UFR39 [1]) of the same molecule?
Answer: <0.25

Question: What about the “MIC combination” value (E. cloacae UFR70) of the same molecule?
Answer: <0.25

Question: What about the “MIC combination” value (E. coli UFR61O) of the same molecule?
Answer: <0.25

Question: What about the “MIC combination” value (E. cloacae UFR85) of the same molecule?
Answer: 1

Question: And the “MIC combination” value (K. oxytoca UFR21)?
Answer: 4

Question: And the “MIC combination” value (E. coli RGN238)?
Answer: <0.25

Question: What about the “MIC combination” value (K. pneumoniae 200047) of the same molecule?
Answer: <0.25

Question: What about the “MIC combination” value (E. coli UFR32) of the same molecule?
Answer: <0.25

Question: And the “MIC combination” value (K. pneumoniae BAA-1898 [2]; MIC of ceftazidime with compound fixed at 4 μg/mL, strain BAA-1898 (K. pneumoniae))?
Answer: 0.5

Question: What about the “MIC combination” value (K. pneumoniae UFR68) of the same molecule?
Answer: 4

Question: And the “MIC combination” value (K. pneumoniae UFR77)?
Answer: <0.25

Question: What about the “MIC combination” value (E. cloacae 260508) of the same molecule?
Answer: ≤0.25

Question: And the “MIC combination” value (E. cloacae P99 [3]; MIC of ceftazidime with compound fixed at 4 μg/mL, strain P99 (E. cloacae))?
Answer: ≤0.25

Question: And the “MIC combination” value (E. coli UFR18)?
Answer: <0.25

Question: What about the “MIC combination” value (E. coli 190317 [4]; MIC of ceftazidime with compound fixed at 4 μg/mL, strain 190317 (E. coli)) of the same molecule?
Answer: <0.25

Question: And the “MIC combination” value (K. pneumoniae 6299 [5]; MIC of ceftazidime with compound fixed at 4 μg/mL, strain 6299 (K. pneumoniae))?
Answer: ≤0.25

Question: And the “MIC combination” value (P. aeruginosa CIP107051 [6]; MIC of ceftazidime with compound fixed at 4 μg/mL, strain CIP107051 (P. aeruginosa))?
Answer: 4

Question: What about the “MIC combination” value (E. cloacae UFR51) of the same molecule?
Answer: <0.25

Question: What about the “MIC combination” value (E. coli UFR74) of the same molecule?
Answer: <0.25

Question: What about the IC50 (CMY-37) of the same molecule?
Answer: 150 nM

Question: And the MIC (K. pneumoniae 6299 [7]; Klebsiella pneumoniae, 6299, read-out: MIC compounds of the invention alone)?
Answer: 16 µg/mL

Question: And the MIC (P. aeruginosa CIP107051 [8]; Pseudomonas aeruginosa, CIP107051, read-out: MIC compounds of the invention alone)?
Answer: > 32 µg/mL

Question: For CC(C)(O/N=C(\C(=O)N[C@@H]1C(=O)N2C(C(=O)[O-])=C(C[n+]3ccccc3)CS[C@H]12)c1csc(N)n1)C(=O)O [CAZ, ceftazidime, reference compound], which MIC (E. coli UFR39 [9]) is on record?
Answer: > 1020 µg/mL

Question: With NC(=O)c1cn(C2=CC3CN(C2)C(=O)N3OS(=O)(=O)[O-])nn1.[Na+] (stereo not drawn) [Example 56, sodium [3-(4-carbamoyltriazol-1-yl)-7-oxo-1,6-diazabicyclo[3.2.1]oct-3-en-6-yl]sulfate] as the molecule, how does the IC50 (AmpC (PAE)) read?
Answer: 290 nM

Question: And the “MIC combination” value (K. pneumoniae BAA-1898 [2]; strain BAA-1898, MIC of CAZ, compound fixed at 4 μg/mL)?
Answer: ≤0.25 µg/mL

Question: And the “MIC combination” value (E. cloacae P99 [3]; strain P99, MIC of CAZ, compound fixed at 4 μg/mL)?
Answer: ≤0.25 µg/mL

Question: What about the “MIC combination” value (E. coli 190317 [4]; strain 190317, MIC of CAZ, compound fixed at 4 μg/mL) of the same molecule?
Answer: <0.25 µg/mL

Question: What about the “MIC combination” value (K. pneumoniae 6299 [5]; strain 6299, MIC of CAZ, compound fixed at 4 μg/mL) of the same molecule?
Answer: ≤0.25 µg/mL

Question: And the “MIC combination” value (P. aeruginosa CIP107051 [6]; strain CIP107051, MIC of CAZ, compound fixed at 4 μg/mL)?
Answer: 8 µg/mL

Question: What about the IC50 (AmpC (P99)) of the same molecule?
Answer: 12 nM

Question: And the IC50 (CTX-M-15)?
Answer: 0.44 nM

Question: What about the IC50 (CMY-37) of the same molecule?
Answer: 38 nM

Question: What about the IC50 (TEM-1) of the same molecule?
Answer: 0.17 nM

Question: And the IC50 (OXA-48)?
Answer: 0.48 nM

Question: What about the IC50 (OXA-15) of the same molecule?
Answer: 9 nM

Question: And the IC50 (OXA-11)?
Answer: 37 nM

Question: What about the “MIC compounds of the invention alone” value (K. pneumoniae BAA-1898 [10]) of the same molecule?
Answer: 32 µg/mL

Question: And the “MIC compounds of the invention alone” value (E. cloacae P99 [11])?
Answer: 8 µg/mL

Question: And the “MIC compounds of the invention alone” value (E. coli 190317 [12])?
Answer: 4 µg/mL

Question: What about the “MIC compounds of the invention alone” value (K. pneumoniae 6299 [7]; strain 6299, compound alone) of the same molecule?
Answer: 32 µg/mL

Question: And the “MIC compounds of the invention alone” value (P. aeruginosa CIP107051 [8]; strain CIP107051, compound alone)?
Answer: >32 µg/mL

Question: What about the IC50 (SHV-1) of the same molecule?
Answer: 1 nM

Question: What about the IC50 (OXA-1) of the same molecule?
Answer: 30 nM

Question: And the IC50 (KPC-2)?
Answer: 2.4 nM
